Among the data in the supplement of paper PMC10307832 are relative viability values, retold here.

Assay in all cases: relative viability (nuclei count vs DMSO), 5 days (fraction); higher = more cells survive
Compound in experiment [1]: Cc1ccc(NC(=O)c2ccc(CN3CCN(C)CC3)cc2)cc1Nc1nccc(-c2cccnc2)n1 [Imatinib] + N=C(N)NC(=N)NCCc1ccccc1 [Phenformin] (partner 250 µM)
Put shortly:
(§1)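 Medians of duplicate plates are given as relative viability. That measure is the nuclei count in treated wells divided by the count in vehicle wells. Counts were taken on 4× images of lung cancer cell lines in 1536-well plates, 5 days after pin-tool dosing the day after seeding with one drug alone or a fixed anchor-drug dose plus five library-drug doses (not always all listed) in √10 steps.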

Compound in experiment [2]: Cc1ccc(NC(=O)c2ccc(CN3CCN(C)CC3)cc2)cc1Nc1nccc(-c2cccnc2)n1 [Imatinib] + NC(=O)Nc1cc(-c2cccc(F)c2)sc1C(=O)N[C@H]1CCCNC1 [AZD7762] (partner 0.2 µM)
The procedure, abridged: as §1

Compound in experiment [3]: Cc1ccc(NC(=O)c2ccc(CN3CCN(C)CC3)cc2)cc1Nc1nccc(-c2cccnc2)n1 [Imatinib] + CC(=O)c1c(C)c2cnc(Nc3ccc(N4CCNCC4)cn3)nc2n(C2CCCC2)c1=O [Palbociclib] (partner 0.5 µM)
The procedure, abridged: as §1

Compound in experiment [4]: Cc1ccc(NC(=O)c2ccc(CN3CCN(C)CC3)cc2)cc1Nc1nccc(-c2cccnc2)n1 [Imatinib] + CC1(C)CCC(c2ccc(Cl)cc2)=C(CN2CCN(c3ccc(C(=O)NS(=O)(=O)c4ccc(N[C@H](CCN5CCOCC5)CSc5ccccc5)c(S(=O)(=O)C(F)(F)F)c4)cc3)CC2)C1 [Navitoclax] (partner 0.5 µM)
Put shortly: as §1

Consider NCI-H650, for which the relative viability was determined as 0.505 in experiment [1] (first compound 0.02 µM); 0.435 in experiment [1] (first compound 0.06325 µM); 0.516 in experiment [1] (first compound 0.2 µM); 0.494 in experiment [1] (first compound 0.6325 µM); 0.425 in experiment [1] (first compound 2 µM); 1.11 in experiment [2] (first compound 0.02 µM). Also, the relative viability in experiment [2] (first compound 0.06325 µM) turned out to be 0.882; in experiment [2] (first compound 0.6325 µM) it was 1.03; in experiment [2] (first compound 2 µM), 0.979; in experiment [3] (first compound 0.02 µM), 0.303; in experiment [3] (first compound 0.06325 µM), 0.356; in experiment [3] (first compound 0.2 µM), 0.353. The relative viability in experiment [3] (first compound 0.6325 µM) stood at 0.349; in experiment [3] (first compound 2 µM), 0.298.

For NCI-H2170, the relative viability is 0.448 in experiment [1] (first compound 0.02 µM); 0.414 in experiment [1] (first compound 0.06325 µM); 0.406 in experiment [1] (first compound 0.2 µM); 0.361 in experiment [1] (first compound 0.6325 µM); 0.301 in experiment [1] (first compound 2 µM); 0.722 in experiment [4] (first compound 0.02 µM). The relative viability stood at 0.655 in experiment [4] (first compound 0.06325 µM); 0.672 in experiment [4] (first compound 0.2 µM); 0.643 in experiment [4] (first compound 0.6325 µM); 0.633 in experiment [4] (first compound 2 µM); 0.94 in experiment [2] (first compound 0.02 µM); 0.77 in experiment [2] (first compound 0.06325 µM). Moreover, the relative viability amounted to 0.86 in experiment [2] (first compound 0.2 µM); 0.745 in experiment [2] (first compound 0.6325 µM); 0.773 in experiment [2] (first compound 2 µM); 0.399 in experiment [3] (first compound 0.02 µM); 0.438 in experiment [3] (first compound 0.06325 µM); 0.431 in experiment [3] (first compound 0.2 µM). Also, the relative viability in experiment [3] (first compound 0.6325 µM) is 0.408; in experiment [3] (first compound 2 µM), 0.382.

On to NCI-H441, for which the relative viability in experiment [1] (first compound 0.02 µM) was 0.755; in experiment [1] (first compound 0.06325 µM) it was 0.747; in experiment [1] (first compound 0.2 µM), 1.02; in experiment [1] (first compound 0.6325 µM) it was 0.958; in experiment [1] (first compound 2 µM), 0.879; in experiment [4] (first compound 0.02 µM), 0.647. The relative viability in experiment [4] (first compound 0.06325 µM) worked out at 0.675; in experiment [4] (first compound 0.2 µM), 0.606; in experiment [4] (first compound 0.6325 µM), 0.612; in experiment [4] (first compound 2 µM), 0.572; in experiment [2] (first compound 0.02 µM), 1.34; in experiment [2] (first compound 0.06325 µM), 1.34. The relative viability was determined as 1.17 in experiment [2] (first compound 0.2 µM); 1.1 in experiment [2] (first compound 0.6325 µM); 1.08 in experiment [2] (first compound 2 µM); 0.22 in experiment [3] (first compound 0.02 µM); 0.213 in experiment [3] (first compound 0.06325 µM); 0.229 in experiment [3] (first compound 0.2 µM). In addition, the relative viability in experiment [3] (first compound 0.6325 µM) was determined as 0.229; in experiment [3] (first compound 2 µM), 0.233.

Turning to HCC-366, the relative viability in experiment [1] (first compound 0.02 µM) is 0.64; in experiment [1] (first compound 0.2 µM) it was 0.637; in experiment [1] (first compound 0.6325 µM), 0.631; in experiment [1] (first compound 2 µM), 0.579; in experiment [4] (first compound 0.02 µM), 1.02; in experiment [4] (first compound 0.2 µM), 1.13. Moreover, the relative viability in experiment [4] (first compound 0.6325 µM) came out at 1.09; in experiment [4] (first compound 2 µM), 1.07; in experiment [2] (first compound 0.02 µM) it was 0.367; in experiment [2] (first compound 0.06325 µM) it was 0.364; in experiment [2] (first compound 0.2 µM), 0.288; in experiment [2] (first compound 0.6325 µM), 0.208. Besides, the relative viability in experiment [2] (first compound 2 µM) was determined as 0.181; in experiment [3] (first compound 0.02 µM), 0.435; in experiment [3] (first compound 0.06325 µM), 0.425; in experiment [3] (first compound 0.2 µM) it was 0.502; in experiment [3] (first compound 0.6325 µM), 0.35; in experiment [3] (first compound 2 µM), 0.412.

Turning to NCI-H2009, the relative viability in experiment [1] (first compound 0.02 µM) was found to be 0.518; in experiment [1] (first compound 0.2 µM) it was 0.485; in experiment [1] (first compound 0.6325 µM), 0.445; in experiment [1] (first compound 2 µM) it was 0.383; in experiment [4] (first compound 0.02 µM), 1.22; in experiment [4] (first compound 0.06325 µM), 1.22. The relative viability in experiment [4] (first compound 0.2 µM) is 1.23; in experiment [4] (first compound 0.6325 µM) it was 1.17; in experiment [4] (first compound 2 µM) it was 1.11; in experiment [3] (first compound 0.02 µM), 0.202; in experiment [3] (first compound 0.06325 µM), 0.157; in experiment [3] (first compound 0.2 µM) it was 0.194. For the same cell line, the results for the relative viability in experiment [3] (first compound 0.6325 µM) and in experiment [3] (first compound 2 µM) were 0.2 and 0.203, respectively.

With NCI-H1792, the relative viability was 0.262 in experiment [1] (first compound 0.02 µM); 0.237 in experiment [1] (first compound 0.06325 µM); 0.233 in experiment [1] (first compound 0.2 µM); 0.235 in experiment [1] (first compound 0.6325 µM); 0.35 in experiment [1] (first compound 2 µM); 0.744 in experiment [4] (first compound 0.02 µM). The relative viability in experiment [4] (first compound 0.06325 µM) was 0.557; in experiment [4] (first compound 0.2 µM) it was 0.761; in experiment [4] (first compound 0.6325 µM), 0.644; in experiment [4] (first compound 2 µM), 0.567; in experiment [2] (first compound 0.02 µM), 0.727; in experiment [2] (first compound 0.06325 µM), 0.7. In addition, the relative viability in experiment [2] (first compound 0.2 µM) amounted to 0.513; in experiment [2] (first compound 2 µM), 0.34; in experiment [3] (first compound 0.02 µM), 0.608; in experiment [3] (first compound 0.06325 µM), 0.542; in experiment [3] (first compound 0.2 µM), 0.655; in experiment [3] (first compound 0.6325 µM), 0.573. Further, in experiment [3] (first compound 2 µM), the relative viability worked out at 0.736.

Regarding SW 900, the relative viability in experiment [1] (first compound 0.02 µM) is 0.57; in experiment [1] (first compound 0.06325 µM), 0.474; in experiment [1] (first compound 0.2 µM), 0.821; in experiment [1] (first compound 0.6325 µM), 0.578; in experiment [1] (first compound 2 µM), 0.499; in experiment [2] (first compound 0.02 µM), 0.784. Moreover, the relative viability turned out to be 0.572 in experiment [2] (first compound 0.06325 µM); 0.605 in experiment [2] (first compound 0.2 µM); 0.619 in experiment [2] (first compound 0.6325 µM); 0.529 in experiment [2] (first compound 2 µM); 0.549 in experiment [3] (first compound 0.02 µM); 0.644 in experiment [3] (first compound 0.06325 µM). Besides, the relative viability is 0.617 in experiment [3] (first compound 0.2 µM), 0.566 in experiment [3] (first compound 0.6325 µM) and 0.588 in experiment [3] (first compound 2 µM).

COR-L23: the relative viability was found to be 0.469 in experiment [1] (first compound 0.02 µM); 0.541 in experiment [1] (first compound 0.06325 µM); 0.496 in experiment [1] (first compound 0.2 µM); 0.419 in experiment [1] (first compound 0.6325 µM); 0.422 in experiment [1] (first compound 2 µM); 1.11 in experiment [4] (first compound 0.02 µM). In addition, the relative viability in experiment [4] (first compound 0.06325 µM) came to 1.32; in experiment [4] (first compound 0.2 µM) it was 1.5; in experiment [4] (first compound 0.6325 µM) it was 1.04; in experiment [4] (first compound 2 µM), 1.03; in experiment [3] (first compound 0.02 µM), 0.329; in experiment [3] (first compound 0.06325 µM), 0.226. The relative viability in experiment [3] (first compound 0.2 µM) stood at 0.303; in experiment [3] (first compound 0.6325 µM), 0.31; in experiment [3] (first compound 2 µM) it was 0.297.
